Patent US9226950B2, “Method and composition for treating diabetes mellitus” (National Dong Hwa University, priority 2013, dated 2016)

Assays:
[1] = test system: L6 myotubes; assay: Glucose uptake assay (2-deoxyglucose) in L6 myotubes; assay type: cell-based, rat; details: FIG. 4
Protocol: […] muscle myoblast cells (L6) was a generous gift from Professor Hitoshi Ashida's Lab. (Kobe University, Kobe, Japan). The cells were grown and maintained in α-minimal essential medium (α-MEM, 12000022, GIBCO, CA, USA) containing 10% fetal bovine serum (FBS, GIBCO) and 1% penicillin streptomycin (GIBCO) in a cell culture incubator with 5% CO2 at 37° C. Prior to the following experiments, the cells were seeded and cultured at a density of 8×10^3 cells per well in 96-well plates or 2.5×10^5 cells per well in 6-well plates. After the myoblasts achieved 80% confluence, the cells were incubated for 5 days in the α-MEM supplemented with 2% FBS to induce differentiation to myotubes.
The glucose uptake assay was followed the study disclosed in Yamamoto et al. (“An enzymatic fluorimetric assay to quantitate 2-deoxyglucose and 2-deoxyglucose-6-phosphate for in vitro and in vivo use.” Anal Biochem 404(2): 238-240, 2010) with minor modification and the technique generously assistant from Professor Hitoshi Ashida's Lab (Kobe University, Kobe, Japan). […] Uptake of 2DG into the cells was measured by the enzymatic fluorescence assay. The fluorescence assay buffer was composed of 50 mM TEA buffer, 0.1% BSA, 2.5 mM β-NADP (Wako Pure Chemical, Osaka, Japan), 0.05 unit Diaphorase (Wako), 150 unit/L. mesenteriodes G6PDH (sigma), and 0.5 mM Resazurin sodium salt (sigma). […]

[2] = test system: S961-induced hyperglycemic mice (DM mice); assay: Oral glucose tolerance test (OGTT) in S961-induced hyperglycemic mice; assay type: in vivo, C57BL/6 mouse; details: D-glucose 2 g/kg
Protocol: Animal experiments were approved by the National Dong-Hwa University Animal Ethics Committee and were used according to the “Guide for the Care and Use of Laboratory Animals” of National Dong-Hwa University. The C57BL/6 mouse were obtained National Laboratory Animal Center (Taipei, Taiwan) and kept at controlled environmental conditions with room temperature (22±2° C.) and humidity (50±10%). The 12 hr light (0600 am-1800 pm) and 12 hr dark cycle was maintained throughout the study. Mice had free access to food and water and maintained on a standard laboratory diet (containing carbohydrates: 60%, proteins: 28%, lipids: 12%, and vitamins: 3%).
The 8 weeks old male C57 BL/6 mice after fasting 12 hr were used in this test. The mice were orally administered (p.o.) with tetracosanol (dissolved in PEG and EtOH, 25 mg/kg Bwt) or Metformin (100 mg/kg Bwt) for 3 hr. To investigate the effect of tetracosanol on the DM mice, the mice were intraperitoneally injected (i.p.) with S961 (50 nmol/kg Bwt) to induce hyperglycemia, prior to the administration of D-glucose (2 g/kg Bwt, p.o.). At approximately the 0, 30, 60, 90, and 120 min., the blood of each mouse was sampled by venipuncture from the tail vein for the determination of blood glucose. Blood glucose was immediately determined by the glucose oxidase method using glucose analyzer (Accu-Chek, Roche).
To investigate the glycemic control effect of tetracosanol on the hyperglycemic mice, hyperglycemic mice were induced by insulin receptor antagonist-S961. The mice of each group were treated with or without Metformin (Met) as positive control, or treated with or without tetracosanol (Tet). Then, all the groups were administered with D-glucose (2 g/kg Bwt) (n=6 in each group). The tetracosanol for glycemic control was confirmed by OGTT.
8 weeks old male C57 BL/6 mice after fasting 12 hr were employed in this study. […] The blood glucose was determined by the glucose oxidase method using glucose analyzer (Accu-Chek, Roche). […]

CCCCCCCCCCCCCCCCCCCCCCCCO [tetracosanol]
cell glucose uptake ([1]; 1 μM insulin plus 400 nM S961 and 10 μM tetracosanol (Ins+S961+Tet) versus Ins+Tet): synergistic effect | cell glucose uptake ([1]; 10 μM tetracosanol with 1 μM insulin (Ins+Tet)): enhanced the cell glucose uptake | blood glucose change in OGTT ([2]; DM mice (S961), p.o., comparison with metformin, FIG. 6(a)): even better than metformin | blood glucose change in OGTT ([2]; tetracosanol 25 mg/kg Bwt p.o. versus Metformin 100 mg/kg Bwt, S961 50 nmol/kg i.p., FIG. 5(a)): profile similar to the treatment with metformin | AUC of the blood glucose change in OGTT ([2]; tetracosanol 25 mg/kg Bwt p.o., DM mice (S961) and normal mice (Con), FIG. 5(b)): good efficacy in glycemic control
